From patent US10759790B2, “Heterocyclic constrained tricyclic sulfonamides as anti-cancer agents” (ICAHN SCHOOL OF MEDICINE AT MOUNT SINAI, priority 2015, dated 2020)
Where two headings read alike, the source gives them in different places.

Assays:
H1650 lung cancer cells = experiment: Cell viability assay (MTT, IC50 determination); assay type: cell-based; settings: Homo sapiens, read-out: H1650 cell viability IC50
Protocol: Cell viability assays were performed according to Denizot, F. and R. Lang, Journal of Immunological Methods, 1986. 89(22): p. 271-277. H1650 lung cancer cells were plated at 150,000 cells per well in a 12 well plate. Twenty-four hours after plating, cells were treated as described with increasing concentrations of drug and control. Forty-eight hours after drug treatment, cells were treated with 100 μL of 3-(4,5-Dimethylthiazol-2-yl)-2,5-diphenyltetrazolium bromide (MTT) and incubated for 2 hours at 37 C. The MTT solution was subsequently replaced with 300 μL of n-propyl alcohol and re-aliquoted to a 96 well plate. Spectrophotometric analysis of each solution was performed using a 96 well plate reader at 600 nm in triplicate.

[1] = test system: lung cancer cell line H358; experiment: In vivo cancer model: subcutaneous H358 xenograft, tumor volume (Example 2a); parameters: species or system BALB/c nu/nu mice; settings: 5 mg/kg BID oral gavage
Protocol: (§1) To assess the in vivo effects of the compounds, subcutaneous xenograft of lung cancer cell line H358 was generated. Cells (5×10^6) were injected into the right flank of 6- to 8-week-old male BALB/c nu/nu mice (Charles River, Wilmington, Mass.). Tumor volume was assessed twice a week by caliper measurement. Mice were randomized to treatment groups based on initial tumor volume average of 200 mm^3 per group. Mice were dosed by oral gavage with 5 mg/kg Example 2a BID. Mouse tumors were measured twice a week for the duration of the study. Mouse body weights were recorded weekly and percentage of mice body weights during treatment was calculated as: weight at each time point/initial weight×100.

[2] = In vivo cancer model: body weights and signs of toxicity (Example 2a); parameters: species or system BALB/c nu/nu mice; settings: 5 mg/kg BID oral gavage
Protocol: as §1

[3] = NCI-H1650, H1650 lung cancer cells, MTT, 48 hours after drug treatment

Compound | IC50 (H1650 lung cancer cells; [3]) [µM] | other results
O=S(=O)(N[C@@H]1COC[C@H](N2c3ccccc3Oc3ccccc32)[C@H]1O)c1ccc(Cl)cc1 [Example 61, 4-chloro-N-((3R,4R,5S)-4-hydroxy-5-(10H-phenoxazin-10-yl)tetrahydro-2H-pyran-3-yl)benzenesulfonamide] | 5 | 
O=S(=O)(N[C@@H]1COC[C@H](n2c3ccc(F)cc3c3cc(F)ccc32)[C@H]1O)c1ccc(OC(F)(F)F)cc1 [Example 3, N-((3R,4R,5S)-5-(3,6-difluoro-9H-carbazol-9-yl)-4-hydroxytetrahydro-2H-pyran-3-yl)-4-(trifluoromethoxy)benzenesulfonamide] | 10 | 
O=S(=O)(N[C@@H]1COC[C@H](N2c3ccc(C(F)(F)F)cc3Oc3cc(C(F)(F)F)ccc32)[C@H]1O)c1ccc(OC(F)(F)F)cc1 [Example 14, N-((3R,4R,5S)-5-(3,7-bis(trifluoromethyl)-10H-phenoxazin-10-yl)-4-hydroxytetrahydro-2H-pyran-3-yl)-4-(trifluoromethoxy)benzenesulfonamide] | 5 | 
O=S(=O)(N[C@@H]1COC[C@H](N2c3ccccc3Oc3cc(C(F)(F)F)ccc32)[C@H]1O)c1ccc(OC(F)(F)F)cc1 [Example 15, N-((3R,4R,5S)-4-hydroxy-5-(3-(trifluoromethyl)-10H-phenoxazin-10-yl)tetrahydro-2H-pyran-3-yl)-4-(trifluoromethoxy)benzenesulfonamide] | 5 | 
CC(C)(C)OC(=O)N1C[C@@H](NS(=O)(=O)c2ccc(OC(F)(F)F)cc2)[C@H](O)[C@@H](N2c3ccc(C(F)(F)F)cc3Oc3cc(C(F)(F)F)ccc32)C1 [Example 57, (3S,4R,5R)-tert-butyl 3-(3,7-bis(trifluoromethyl)-10H-phenoxazin-10-yl)-4-hydroxy-5-(4-(trifluoromethoxy)phenylsulfonamido)piperidine-1-carboxylate] | 5 | 
O=S(=O)(N[C@@H]1COC[C@H](N2c3ccccc3Oc3ccccc32)[C@H]1O)c1ccc(OC(F)(F)F)cc1 [Example 2a, N-((3R,4R,5S)-4-hydroxy-5-(10H-phenoxazin-10-yl)tetrahydro-2H-pyran-3-yl)-4-(trifluoromethoxy)benzenesulfonamide] | 15 | % T/C (mean tumor volume) ([1]; treatment day 17): 28.82%; % T/C (median tumor volume) ([1]; treatment day 17): 25.82%; Inhibition of tumor growth versus vehicle control ([1]; treatment day 17): statistically significant inhibition of tumor (T) growth versus vehicle control (C); Mean Tumor Volume (T) ([1]; treatment day 17, in mm³): 208.64; Median Tumor Volume (T) ([1]; treatment day 17, in mm³): 191.78; Signs of toxicity (mucous diarrhea, abdominal stiffness and weight loss) [2]: no adverse signs were observed; Toxicity as judged from animal body weights versus vehicle control [2]: No statistically significant toxicity was observed; % T/C (mean body weight) ([2]; H358 xenograft mice): 96.36%; % T/C (median body weight) ([2]; H358 xenograft mice): 96.92%; Mean body weight ([2]; H358 xenograft mice): 30.21 g; Median body weight ([2]; H358 xenograft mice): 29.95 g
O=S(=O)(N[C@H]1COC[C@@H](N2c3ccccc3Oc3ccccc32)[C@@H]1O)c1ccc(OC(F)(F)F)cc1 [Example 2b, N-((3S,4S,5R)-4-hydroxy-5-(10H-phenoxazin-10-yl)tetrahydro-2H-pyran-3-yl)-4-(trifluoromethoxy)benzenesulfonamide] | 15 | 
CC(=O)N1C[C@@H](NS(=O)(=O)c2ccc(OC(F)(F)F)cc2)[C@H](O)[C@@H](N2c3ccccc3Oc3ccccc32)C1 [Example 18a, N-((3R,4R,5S)-1-acetyl-4-hydroxy-5-(10H-phenoxazin-10-yl)piperidin-3-yl)-4-(trifluoromethoxy)benzenesulfonamide] |  | IC50 (H1650 lung cancer cells; NCI-H1650, 48 h): 25 µM
CC(C)(C)OC(=O)N1C[C@H](NS(=O)(=O)c2ccc(OC(F)(F)F)cc2)[C@@H](O)[C@H](n2c3ccccc3c3ccccc32)C1 [Example 52b, (3R,4S,5S)-tert-butyl 3-(9H-carbazol-9-yl)-4-hydroxy-5-(4-(trifluoromethoxy)phenylsulfonamido)piperidine-1-carboxylate] | 5 | 
CC(C)(C)OC(=O)N1C[C@@H](NS(=O)(=O)c2ccc(OC(F)(F)F)cc2)[C@H](O)[C@@H](n2c3ccc(Cl)cc3c3cc(Cl)ccc32)C1 [Example 56, (3S,4R,5R)-tert-butyl 3-(3,6-dichloro-9H-carbazol-9-yl)-4-hydroxy-5-(4-(trifluoromethoxy)phenylsulfonamido)piperidine-1-carboxylate] | 5 | 
CC(C)(C)OC(=O)N1C[C@@H](NS(=O)(=O)c2ccc(OC(F)(F)F)cc2)[C@H](O)[C@@H](N2c3ccccc3Oc3ccccc32)C1 [Example 16a, (3S,4R,5R)-tert-butyl 4-hydroxy-3-(10H-phenoxazin-10-yl)-5-(4-(trifluoromethoxy)phenylsulfonamido)piperidine-1-carboxylate] | 10 | 
CC(C)(C)OC(=O)Nc1ccc(S(=O)(=O)N[C@@H]2COC[C@H](N3c4ccccc4Oc4ccccc43)[C@H]2O)cc1 [Example 66, tert-butyl (4-(N-((3R,4R,5S)-4-hydroxy-5-(10H-phenoxazin-10-yl)tetrahydro-2H-pyran-3-yl)sulfamoyl)phenyl)carbamate] | 5 | 
O=S(=O)(N[C@@H]1COC[C@H](N2c3ccccc3Oc3ccccc32)[C@H]1O)c1cccc(Cl)c1 [Example 64, 3-chloro-N-((3R,4R,5S)-4-hydroxy-5-(10H-phenoxazin-10-yl)tetrahydro-2H-pyran-3-yl)benzenesulfonamide] | 15 | 
O=S(=O)(N[C@@H]1COC[C@H](N2c3ccccc3Oc3ccccc32)[C@H]1O)c1ccccc1Cl [Example 65, 2-chloro-N-((3R,4R,5S)-4-hydroxy-5-(10H-phenoxazin-10-yl)tetrahydro-2H-pyran-3-yl)benzenesulfonamide] | 20 | 
O=S(=O)(N[C@@H]1COC[C@H](N2c3ccccc3Oc3ccccc32)[C@H]1O)c1ccc(C(F)(F)F)nc1 [Example 63, N-((3R,4R,5S)-4-hydroxy-5-(10H-phenoxazin-10-yl)tetrahydro-2H-pyran-3-yl)-6-(trifluoromethyl)pyridine-3-sulfonamide] | 20 | 
O=S(=O)(N[C@@H]1CNC[C@H](N2c3ccc(C(F)(F)F)cc3Oc3cc(C(F)(F)F)ccc32)[C@H]1O)c1ccc(OC(F)(F)F)cc1 [Example 58, N-((3R,4R,5S)-5-(3,7-bis(trifluoromethyl)-10H-phenoxazin-10-yl)-4-hydroxypiperidin-3-yl)-4-(trifluoromethoxy)benzenesulfonamide] | 5 | 
O=S(=O)(N[C@@H]1COC[C@H](N2c3ccccc3Oc3ccc(F)cc32)[C@H]1O)c1ccc(OC(F)(F)F)cc1 [Example 7, N-((3R,4R,5S)-5-(2-fluoro-10H-phenoxazin-10-yl)-4-hydroxytetrahydro-2H-pyran-3-yl)-4-(trifluoromethoxy)benzenesulfonamide] | 15 | 
CC(C)(C)OC(=O)Nc1cccc(S(=O)(=O)N[C@@H]2COC[C@H](N3c4ccccc4Oc4ccccc43)[C@H]2O)c1 [Example 68, tert-butyl (3-(N-((3R,4R,5S)-4-hydroxy-5-(10H-phenoxazin-10-yl)tetrahydro-2H-pyran-3-yl)sulfamoyl)phenyl)carbamate] | 5 | 
Cc1ccc2c(c1)c1cc(C)ccc1n2[C@H]1COC[C@@H](NS(=O)(=O)c2ccc(OC(F)(F)F)cc2)[C@@H]1O [Example 51, N-((3R,4R,5S)-5-(3,6-dimethyl-9H-carbazol-9-yl)-4-hydroxytetrahydro-2H-pyran-3-yl)-4-(trifluoromethoxy)benzenesulfonamide] | 5 | 
COC(=O)N1C[C@@H](NS(=O)(=O)c2ccc(OC(F)(F)F)cc2)[C@H](O)[C@@H](N2c3ccccc3Oc3ccccc32)C1 [Example 20a, (3S,4R,5R)-methyl 4-hydroxy-3-(10H-phenoxazin-10-yl)-5-(4-(trifluoromethoxy)phenylsulfonamido)piperidine-1-carboxylate] |  | IC50 (H1650 lung cancer cells; NCI-H1650, 48 h): 15 µM
